Target: T1, SaCSD1 (Sonneratia alba, UniProt A0A0U1X631)
T1 construct: gene SOD1
T1 sequence (A0A0U1X631 1-152): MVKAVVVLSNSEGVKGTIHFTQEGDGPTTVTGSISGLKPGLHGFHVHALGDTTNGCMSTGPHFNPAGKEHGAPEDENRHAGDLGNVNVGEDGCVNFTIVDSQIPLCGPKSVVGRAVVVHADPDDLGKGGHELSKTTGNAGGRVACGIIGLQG
Test: SOD activity assay kit (WST-1 method)
Assay type: biochemical

## [O]O [superoxide]
  SOD activity assay kit (WST-1 method): Superoxide dismutase activity assay kit (WST-1 method) was used to detect the SOD activity

Source: PMC4730251, “Cloning, Characterization and Expression Pattern Analysis of a Cytosolic Copper/Zinc Superoxide Dismutase (SaCSD1) in a Highly Salt Tolerant Mangrove (Sonneratia alba)” (International Journal of Molecular Sciences, 2015)
